Data from article PMC7285070, “Quercetin Is a Flavonoid Breast Cancer Resistance Protein Inhibitor with an Impact on the Oral Pharmacokinetics of Sulfasalazine in Rats” (Pharmaceutics, 2020).
Several values for one entry are separate records, joined by “and”; a condition that tells them apart may be missing. Equal values may be shown once. Read-outs that look alike come from different tables or passages of the source. Values belong to the compound of their own block, whether it stands above or below them.

Experiments:
[1] = set-up: method as in PMID 15608138; conditions: rats or P-gp-knockout mice; cited from earlier work
mouse BCRP = tested on: mouse BCRP; set-up: method as in PMID 15608138; conditions: cited from earlier work
human BCRP [2] = biological target: T1, human BCRP (Homo sapiens, UniProt Q9UNQ0); set-up: expressed in transfected cells; host or cells: MDCKII (Madin-Darby canine kidney II) cells; method as in PMID 15608138; conditions: cited from earlier work
T1 sequence (Q9UNQ0 1-655): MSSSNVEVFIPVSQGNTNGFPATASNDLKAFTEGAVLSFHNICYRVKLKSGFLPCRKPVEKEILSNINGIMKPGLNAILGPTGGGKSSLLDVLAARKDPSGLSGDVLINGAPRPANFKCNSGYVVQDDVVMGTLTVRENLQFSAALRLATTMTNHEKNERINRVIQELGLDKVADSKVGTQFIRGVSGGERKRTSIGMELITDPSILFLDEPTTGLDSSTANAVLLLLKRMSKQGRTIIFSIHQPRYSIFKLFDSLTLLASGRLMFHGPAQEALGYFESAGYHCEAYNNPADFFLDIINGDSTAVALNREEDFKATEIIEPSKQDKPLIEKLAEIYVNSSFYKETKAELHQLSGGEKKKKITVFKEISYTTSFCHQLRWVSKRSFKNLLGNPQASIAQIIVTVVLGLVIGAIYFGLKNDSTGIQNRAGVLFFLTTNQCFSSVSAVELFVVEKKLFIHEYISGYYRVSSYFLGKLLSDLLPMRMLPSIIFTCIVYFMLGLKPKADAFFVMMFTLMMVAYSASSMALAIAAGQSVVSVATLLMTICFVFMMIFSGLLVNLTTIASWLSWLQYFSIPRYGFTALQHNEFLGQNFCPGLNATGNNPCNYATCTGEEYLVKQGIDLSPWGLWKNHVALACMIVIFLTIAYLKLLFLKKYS

HeLa cells [3] = experiment: FACS cellular accumulation of mitoxantrone (flow cytometry); type: cell-based, human; conditions: for percentage of cells with a significant uptake of MX, higher than at 2 h of treatment with MX alone: 1 μM MX alone
Protocol: The cellular accumulation of quercetin was measured by FACSCalibur flow cytometry (Becton Dickinson, San Jose, CA, USA). For FACScan analysis, 2 × 10^5 HeLa cells/well were seeded into 6-well cell culture plates on the day before the experiment. On the following day, cells were treated with vehicle or quercetin and 1 μM MX. A time course experiment was conducted on HeLa cells following treatment with quercetin (1 and 100 μM) for 2, 4, and 6 h. After treatment, the cells were harvested by trypsinization and transferred to a fluorescence-activated cell sorting (FACS) tube, pelleted by centrifugation (1500 rpm, 5 min), and then resuspended in 200 μL of PBS. Flow cytometry analysis was performed using red fluorescence. A minimum of 10,000 cells were acquired per sample.

HeLa cells [4] = experiment: Cytotoxicity assay (CCK-8) of mitoxantrone with or without BCRP inhibitor; type: cell-based, human; conditions: for IC50: 24 h, CCK-8
Protocol: Dojindo Molecular Technologies, Kumamoto, Japan) following the manufacturer’s instructions. HeLa cells (at a density of 1 × 10^4 cells per well) were seeded and cultured overnight in 96-well plates. […] The absorbance was measured at a wavelength of 450 nm using a microplate reader (BioTeK, Highland Park, WI, USA).

human BCRP [5] = biological target: T1, human BCRP; conditions: read-out: Km value for prazosin; BCRP-mediated transport; cited from earlier work
BCRP [6] = tested on: BCRP; set-up: method as in PMID 21354800; conditions: MCF-7/MX cells; read-out: IC50, Hoechst 33342 accumulation; cited from earlier work
BCRP [7] = tested on: BCRP; set-up: method as in PMID 21354800; conditions: MDCKII/BCRP cells; read-out: IC50, Hoechst 33342 accumulation; cited from earlier work
[8] = set-up: method as in PMID 15948033; conditions: 10 mg/kg oral administration to rats; cited from earlier work
human BCRP [9] = biological target: T1, human BCRP; experiment: Bi-directional transport of prazosin in MDCKII/BCRP cells; type: cell-based; set-up: expressed in transfected cells; host or cells: MDCKII (Madin-Darby canine kidney II) cells
Protocol: At the end of the incubation, aliquots (300 μL for the apical chamber and 500 μL for the basolateral chamber) of the incubation mixture were collected from the donor and receiver chambers and subjected to LC-MS/MS assays. […] Briefly, an aliquot (50 μL) of a sample was vortex-mixed with an acetonitrile solution containing glipizide (300 ng/mL, internal standard); this was followed by centrifugation (16,100 × g for 5 min at 4 °C). An aliquot (5 μL) of the supernatant was directly injected into the LC-MS/MS system. […] For the internal standard glipizide, the transition m/z 445.[…]/z 320.9 was used. […] The efflux ratio (ER) was calculated by dividing the B-to-A apparent permeability coefficient (Papp, B-to-A) by the A-to-B apparent permeability coefficient (Papp, A-to-B). In the inhibition studies, the percentage of the control efflux ratio (%ER) was also calculated by dividing the value for ER in the presence of the inhibitor by that in the absence of the inhibitor (i.e., in the control).

in vivo = experiment: in vivo; set-up: species or system rats; conditions: rat
Protocol: To determine whether quercetin affects the intestinal efflux mediated by BCRP, we divided the male rats into two groups: A sulfasalazine (a substrate of BCRP) control group and a quercetin pretreatment plus sulfasalazine group (n = 4, each). Considering the similar expression levels of intestinal BCRP between male and female rats, male rats were used in this study. Briefly, overnight fasted male SD rats were anesthetized by intramuscular administration of 50 mg/kg tiletamine HCl/zolazepam HCl (Zoletil®) (Vibrac, TX, USA) and 10 mg/kg xylazine HCl (Rompun®, Bayer, Puteaux, France). While the rats were anesthetized, the femoral artery (for blood sampling) and vein (for supplementing body fluids) were catheterized using polyethylene tubing (PE 50; Clay Adams, Parsippany, NJ, USA). Upon recovery from anesthesia (i.e., after 4 h), quercetin was administered by oral gavage at 10 mg/kg (or 0 mg/kg in the case of the sulfasalazine control group; DMSO/polyethylene glycol 400/saline [1:4:5 (v/v/v)]). The pretreatment dose of quercetin was determined based on the compound solubility in the dosing vehicle and the likely daily dose of human dietary supplement. […] Immediately after each blood collection, an identical volume of saline was intravenously provided to the animal to compensate for fluid loss. To prevent blood clotting during blood collection, the cannula was filled with 25 IU/mL heparinized saline. The plasma fraction was separated from the blood samples by centrifugation (16,100 × g for 5 min at 4 °C) and stored at -80 °C until the LC-MS/MS assay. […] Briefly, an aliquot (50 μL) of a sample was vortex-mixed with an acetonitrile solution containing glipizide (300 ng/mL, internal standard); this was followed by centrifugation (16,100 × g for 5 min at 4 °C). An aliquot (5 μL) of the supernatant was directly injected into the LC-MS/MS system. […] For the internal standard glipizide, the transition m/z 445.[…]/z 320.9 was used. […] Standard non-compartmental pharmacokinetic analysis was carried out using WinNonlin Professional 5.0.1 software (Pharsight, Cary, NC, USA) to calculate the pharmacokinetic parameters, including the peak concentration (Cmax), time of the peak concentration (tmax), elimination half-life (t1/2), area under the plasma concentration-time curve from time zero to the last sampling point, 8 h (AUC8h), and elimination clearance (CL/F).

[10] = set-up: method as in PMID 22711747; conditions: BCRP-knockout rats, oral; cited from earlier work

SMILES: O=c1cc(-c2ccccc2)oc2c1ccc1ccccc12 [7,8-benzoflavone]
- effect of coadministered flavonoid on the pharmacokinetics of topotecan [1]: no significant effects
- inhibition of mouse BCRP (mouse BCRP): weak inhibitors
- inhibition of human BCRP (human BCRP [2]): potent inhibitors

SMILES: COc1ccc2c3c([nH]c2c1)[C@H](CC(C)C)N1C(=O)[C@H](CCC(=O)OC(C)(C)C)NC(=O)[C@@H]1C3 [Ko143]
- internalization of MX when co-administered with inhibitor (HeLa cells [3]; 1 μM Ko143 with MX): considerably high number of cells that internalized MX

SMILES: O=c1cc(-c2ccccc2)oc2cc(O)cc(O)c12 [chrysin]
- effect of coadministered flavonoid on the pharmacokinetics of topotecan [1]: no significant effects
- inhibition of mouse BCRP (mouse BCRP): weak inhibitors
- inhibition of human BCRP (human BCRP [2]): potent inhibitors

SMILES: O=C1c2c(O)ccc(O)c2C(=O)c2c(NCCNCCO)ccc(NCCNCCO)c21 [mitoxantrone]
- percentage of cells with a significant uptake of MX, higher than at 2 h of treatment with MX alone (HeLa cells [3]; 4 h): 17.2%
- percentage of cells with a significant uptake of MX, higher than at 2 h of treatment with MX alone (HeLa cells [3]; 6 h): 27.1%
- cellular uptake of MX, higher than at 2 h of treatment with MX alone (HeLa cells [3]; 1 μM MX with 1 μM quercetin, 4 h): 30.2%
- cellular uptake of MX, higher than at 2 h of treatment with MX alone (HeLa cells [3]; 1 μM MX with 1 μM quercetin, 6 h): 35.9%
- cellular uptake of MX, higher than at 2 h of treatment with MX alone (HeLa cells [3]; 1 μM MX with 100 μM quercetin, 4 h): 45.3%
- cellular uptake of MX, higher than at 2 h of treatment with MX alone (HeLa cells [3]; 1 μM MX with 100 μM quercetin, 6 h): 67.4%
- IC50 (HeLa cells [4]; Homo sapiens, in the presence of Ko143 (1 μM)): 0.62 µM
- IC50 (HeLa cells [4]; Homo sapiens, HeLa, mitoxantrone alone): 5.83 µM
- IC50 (HeLa cells [4]; Homo sapiens, HeLa, with 1 μM quercetin): 1.13 µM
- IC50 (HeLa cells [4]; Homo sapiens, HeLa, with 100 μM quercetin): 0.478 µM
- IC50 of mitoxantrone as percentage of the control value (mitoxantrone alone) (HeLa cells [4]; with 1 μM quercetin): 19.3%
- IC50 of mitoxantrone as percentage of the control value (mitoxantrone alone) (HeLa cells [4]; with 100 μM quercetin): 8.2% and 8.23%
- IC50 (HeLa cells [4]; with 100 μM quercetin): 0.48 µM

SMILES: COc1cc2nc(N3CCN(C(=O)c4ccco4)CC3)nc(N)c2cc1OC [prazosin, Prazosin]
- Km (human BCRP [5]): 128 µM

- IC50 (human BCRP [9]): 4.22 µM
- Ki (human BCRP [9]): 3.91 µM
SMILES: O=c1c(O)c(-c2ccc(O)c(O)c2)oc2cc(O)cc(O)c12 [quercetin, Quercetin]
- IC50 (BCRP [6]): 7.6 µM
- IC50 (BCRP [7]): 6.9 µM
- Cmax [8]: 210 ng/mL
- oral bioavailability [8]: 5.3%

- AUC8h (in vivo; male, SD, po, 2 mg/kg): 44500 ± 11800 ng·min/mL
- CL/F (in vivo; male, SD, po, 2 mg/kg): 33.2 ± 10.2 mL/min/kg
- Cmax (in vivo; male, SD, po, 2 mg/kg): 179 ± 23.0 ng/mL
- t1/2 (in vivo; male, SD, po, 2 mg/kg): 4.03 ± 1.34 h
- tmax (in vivo; male, SD, po, 2 mg/kg): 0.375 ± 0.145 h
- AUC(0-t) (in vivo; male, SD, po, 2 mg/kg, AUC8h): 428 ng·h/mL
- CL/F (in vivo; male, SD, po, 2 mg/kg, CL/F): 52.5 ± 33.5 mL/min/kg
- Cmax (in vivo; male, SD, po, 2 mg/kg, Cmax): 122 ± 23.2 ng/mL
- half-life (in vivo; male, SD, po, 2 mg/kg, t1/2): 6.38 ± 1.85 h
- tmax (in vivo; male, SD, po, 2 mg/kg, tmax): 0.5 h
- change in the elimination half-life (t1/2) of sulfasalazine, quercetin pretreatment vs control (in vivo): no significant change
SMILES: O=C(O)c1cc(/N=N/c2ccc(S(=O)(=O)Nc3ccccn3)cc2)ccc1O [sulfasalazine]
- increase in absorption (AUC8h, Cmax) of sulfasalazine in knockout rats [10]: approximately 20 fold
